US8802865B2 (Janssen Pharmaceutica, NV, priority 2006, dated 2014)

Legend:
[1] = test system: levator ani; experiment: Levator Ani Weight in vivo Assay (stimulation of levator ani weight); set-up: key: “active” in the Table below if the non weight adjusted prostate weight was ≦40 mg or the % Inhibition prostate weight, body weight adjusted was ≧40% @ 2 mg/day dosage; listed herein as “inactive” as they did not meet the specified criteria defined above; details: castrated male Sprague Dawley rats, test compound usually orally once daily with testosterone propionate s.c.; levator ani wet weight; criteria at 2 mg/day dosage
Experimental: (§1) Ventral Prostate and Levator Ani Weight in vivo Assay
(§2) Immature (approximately 50 g) castrated male Sprague Dawley rats (Charles River) were treated once daily for five days with test compound (usually given orally at 40 mg/kg in a volume of 0.3 mL, in 30% cyclodextrin or 0.5% methylcellulose vehicle) and with testosterone propionate (given subcutaneously by injection at the nape of the neck at 2 mg/kg, in a volume of 0.1 mL in sesame oil). On the sixth day, the rats were euthanized by asphyxiation in carbon dioxide. Ventral prostates and levator ani were removed and their wet weights determined. Test compound activity was determined as the percent inhibition of testosterone-enhanced tissue weights, with a vehicle-treated control group set to zero percent and a testosterone alone-treated control group set to 100%.
(§3) Mature (150- to 200-g) castrated male Sprague Dawley rats (Charles River) are similarly tested according to the procedure described above. The rats were dosed for two weeks, with 0.4 mg/kg testosterone propionate used as the positive control.
(§4) Representative compounds of the present invention were tested according to the procedure described above, with results as listed in Table 3 below. For effect on prostate—i.e. an antagonist—a test compound is listed as “active” in the Table below if the non weight adjusted prostate weight was ≦40 mg or the % Inhibition prostate weight, body weight adjusted was ≧40% @ 2 mg/day dosage. For effect on levator ani—i.e. an agonist—a test compound is listed as “active” in the Table below if the non weight adjusted levator ani weight was ≧40 mg or the % Stimulation levator ani weight, body weight adjusted was ≧40% at 2 mg/day dosage.

[2] = test system: ventral prostate; experiment: Ventral Prostate Weight in vivo Assay (inhibition of testosterone-enhanced tissue weight); set-up: key: “active” in the Table below if the non weight adjusted prostate weight was ≦40 mg or the % Inhibition prostate weight, body weight adjusted was ≧40% @ 2 mg/day dosage; listed herein as “inactive” as they did not meet the specified criteria defined above; details: castrated male Sprague Dawley rats, test compound usually orally once daily with testosterone propionate s.c.; ventral prostate wet weight; criteria at 2 mg/day dosage
Experimental: as §1, §2, §3, §4

SMILES	L.A. agonist [1]	Prostate antagonist [2]
C=CCC(O)(c1nc2cc(Cl)c(Cl)cc2[nH]1)C(F)(F)F (single isomer, unassigned; (+)) [Compound 23, (+)-Enantiomer of 2-(5,6-Dichloro-1H-benzoimidazol-2-yl)-1,1,1-trifluoro-pent-4-en-2-ol]	inactive	active
C#CCC(O)(c1nc2cc(Cl)c(Cl)cc2n1C)C(F)(F)F (single isomer, unassigned; (+)) [Compound 36, (+)-Enantiomer of 2-(5,6-Dichloro-1-methyl-1H-benzoimidazol-2-yl)-1,1,1-trifluoro-pent-4-yn-2-ol]	inactive	inactive
C=CCC(O)(c1nc2cc(Cl)c(Cl)cc2[nH]1)C(F)(F)F (single isomer, unassigned; (-)) [Compound 24, (−)-Enantiomer of 2-(5,6-Dichloro-1H-benzoimidazol-2-yl)-1,1,1-trifluoro-pent-4-en-2-ol]	inactive	active
C=C=CC(O)(c1nc2cc(Cl)c(Cl)cc2[nH]1)C(F)(F)F (single isomer, unassigned; (-)) [Compound 32, (−)-Enantiomer of 2-(5,6-Dichloro-1H-benzoimidazol-2-yl)-1,1,1-trifluoro-penta-3,4-dien-2-ol]	inactive	active
C=CC(O)(c1nc2cc(Cl)c(Cl)cc2[nH]1)C(F)(F)F (single isomer, unassigned; (-)) [Compound 44, (−)-2-(5,6-dichloro-1H-benzoimidazol-2-yl)-1,1,1-trifluoro-but-3-en-2-ol]	inactive	inactive
C=C=C(C)C(O)(c1nc2cc(Cl)c(Cl)cc2[nH]1)C(F)(F)F (stereo not drawn) [Compound 6, 2-(5,6-Dichloro-1H-benzoimidazol-2-yl)-1,1,1-trifluoro-3-methyl-pent-3,4-dien-2-ol]	inactive	active
CC#CC(O)(c1nc2cc(Cl)c(Cl)cc2[nH]1)C(F)(F)F (stereo not drawn) [Compound 8, 2-(5,6-Dichloro-1H-benzoimidazol-2-yl)-1,1,1-trifluoro-pent-3-yn-2-ol]	inactive	active
C=C(C)C(O)(c1nc2cc(Cl)c(Cl)cc2[nH]1)C(F)(F)F (stereo not drawn) [Compound 9, 2-(5,6-Dichloro-1H-benzoimidazol-2-yl)-1,1,1-trifluoro-3-methyl-but-3-en-2-ol]	inactive	active
OC(c1ccccc1)(c1nc2cc(Cl)c(Cl)cc2[nH]1)C(F)(F)F (stereo not drawn) [Compound 10, 1-(5,6-Dichloro-1H-benzoimidazol-2-yl)-2,2,2-trifluoro-1-phenyl-ethanol]	inactive	active
C=C(C)CC(O)(c1nc2cc(Cl)c(Cl)cc2[nH]1)C(F)(F)F (stereo not drawn) [Compound 13, 2-(5,6-Dichloro-1H-benzoimidazol-2-yl)-1,1,1-trifluoro-4-methyl-pent-4-en-2-ol]	inactive	active
CC(C)=CC(O)(c1nc2cc(Cl)c(Cl)cc2[nH]1)C(F)(F)F (stereo not drawn) [Compound 14, 2-(5,6-Dichloro-1H-benzoimidazol-2-yl)-1,1,1-trifluoro-4-methyl-pent-3-en-2-ol]	inactive	active
C/C=C/C(O)(c1nc2cc(Cl)c(Cl)cc2[nH]1)C(F)(F)F (stereo not drawn) [Compound 16, 2-(5,6-Dichloro-1H-benzoimidazol-2-yl)-1,1,1-trifluoro-trans-pent-3-en-2-ol]	inactive	active
OCC#CC(O)(c1nc2cc(Cl)c(Cl)cc2[nH]1)C(F)(F)F (stereo not drawn) [Compound 17, 4-(5,6-Dichloro-1H-benzoimidazol-2-yl)-5,5,5-trifluoro-pent-2-yne-1,4-diol]	inactive	active
C=CC(C)(C)C(O)(c1nc2cc(Cl)c(Cl)cc2[nH]1)C(F)(F)F (stereo not drawn) [Compound 25, 2-(5,6-Dichloro-1H-benzoimidazol-2-yl)-1,1,1-trifluoro-3,3-dimethyl-pent-4-en-2-ol]	inactive	active
C=CC(C)C(O)(c1nc2cc(Cl)c(Cl)cc2[nH]1)C(F)(F)F (stereo not drawn) [Compound 26]	inactive	active
C#CCC(O)(c1nc2cc(Cl)c(Cl)cc2n1C)C(F)(F)F (stereo not drawn) [Compound 35, 2-(5,6-Dichloro-1-methyl-1H-benzoimidazol-2-yl)-1,1,1-trifluoro-pent-4-yn-2-ol]		inactive
C=CCCC(O)(c1nc2cc(Cl)c(Cl)cc2[nH]1)C(F)(F)F (stereo not drawn) [Compound 40, 2-(5,6-Dichloro-1H-benzoimidazol-2-yl)-1,1,1-trifluoro-hex-5-en-2-ol]		active
FC(F)(F)C1(c2nc3cc(Cl)c(Cl)cc3[nH]2)OCCO1 [Compound 47, 5,6-Dichloro-2-(2-trifluoromethyl-[1,3]dioxolan-2-yl)-1H-benzimidazole]		active
FC(F)(F)C1(c2nc3cc(Cl)c(Cl)cc3[nH]2)OCC(CCl)O1 (stereo not drawn) [Compound 50, 5,6-Dichloro-2-(4-chloromethyl-2-trifluoromethyl-[1,3]dioxolan-2-yl)-1H-benzimidazole]		active
Cn1c(C2(C(F)(F)F)OCCO2)nc2cc(Cl)c(Cl)cc21 [Compound 52, 5,6-Dichloro-1-methyl-2-(2-trifluoromethyl-[1,3]dioxolan-2-yl)-1H-benzoimidazole]		inactive
N#CCn1c(C2(C(F)(F)F)OCCO2)nc2cc(Cl)c(Cl)cc21 [Compound 53, [5,6-Dichloro-2-(2-trifluoromethyl-[1,3]dioxolan-2-yl)-benzoimidazol-1-yl]-acetonitrile]		active
C#CCn1c(C2(C(F)(F)F)OCCO2)nc2cc(Cl)c(Cl)cc21 [Compound 54, 5,6-Dichloro-1-prop-2-ynyl-2-(2-trifluoromethyl-[1,3]dioxolan-2-yl)-1H-benzoimidazole]		active
C=CCn1c(C2(C(F)(F)F)OCCO2)nc2cc(Cl)c(Cl)cc21 [Compound 55, 1-Allyl-5,6-dichloro-2-(2-trifluoromethyl-[1,3]dioxolan-2-yl)-1H-benzoimidazole]		active
CCn1c(C2(C(F)(F)F)OCCO2)nc2cc(Cl)c(Cl)cc21 [Compound 56, 5,6-Dichloro-1-ethyl-2-(2-trifluoromethyl-[1,3]dioxolan-2-yl)-1H-benzoimidazole]		active
COC(=O)Cn1c(C2(C(F)(F)F)OCCO2)nc2cc(Cl)c(Cl)cc21 [Compound 57, [5,6-Dichloro-2-(2-trifluoromethyl-[1,3]dioxolan-2-yl)-benzoimidazol-1-yl]-acetic acid methyl ester]		inactive
FC(F)(F)C1(c2nc3cc(Cl)c(Cl)cc3[nH]2)NCCN1 [Compound 60, 5,6-Dichloro-2-(2-trifluoromethyl-imidazolidin-2-yl)-1H-benzimidazole]		active
C=C=C(CC)C(O)(c1nc2cc(Cl)c(Cl)cc2[nH]1)C(F)(F)F (stereo not drawn) [Compound 62, 2-(5,6-Dichloro-1H-benzoimidazol-2-yl)-3-ethyl-1,1,1-trifluoro-penta-3,4-dien-2-ol]		active
